Experimental findings from PubChem BioAssay AID179 (DTP/NCI, 2004) are described below.

“And” between values parts separate entries of the source, which are not always exact repeats. Equal entries are not always repeated. The source made the active and inactive calls.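 How the source made its calls: active means compounds giving half or more protection of infected cells from virus-caused growth loss, again on retest; inactive means the rest.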 Where a SMILES comes first, the peptide text is derived from it.

In the experiment the test system is CEM cells HIV-1 protection, formazan growth assay. As to the kind of experiment: NCI AIDS Antiviral Assay. To be noted: for IC50: measured here: growth of uninfected CEM cells. As to the method:
The ability of compounds to protect human CEM cells from HIV-1 infection is measured as a screen for new compounds capable of inhibiting the HIV virus. Five concentrations of drug were tested on uninfected and infected cells and cell growth was measured using a soluble formazan assay. […] Compounds that provided at least 50% protection were retested. Compounds that provided at least 50% protection on retest were listed as moderately active. Compounds that reproducibly provided 100% protection were listed as confirmed active. […] Note that the inability to provide protection could be due to toxicity.

One may read the EC50 as the concentration at which the effect is half-maximal. For orientation: IC50 means the concentration that inhibits the measured activity by half. A high value points to weaker potency in that assay. Regarding `COC(=O)[C@]12CSC[C@H]1C[C@H](c1ccc(N(C)C)cc1)N2`, the EC50 was above 200 µM and the half-maximal inhibitory concentration (IC50) is above 200 µM.

With `CC1(C)C2C=CC1C(=O)CC2` (stereo not given), the EC50 is above 389 µM and the half-maximal inhibitory concentration (IC50) was above 389 µM.

For the compound `O=C1/C(=C/c2ccc(O)cc2)CC/C1=C\c1ccc(O)cc1`, the EC50 was above 200 µM and the half-maximal inhibitory concentration (IC50) came to 31.6 µM.

Turning to `CC(C)c1cccc(C(C)C)c1NC(=O)C(=O)C1CCC2=C(Sc3ccccc3N2)C1=O` (stereo not given), the EC50 was above 204 µM and the 50% inhibitory concentration (IC50) was found to be 2.24 µM.

On to `ClCCNCCNCCCl.O=c1cccccc1[O-].O=c1cccccc1[O-].[Co+3].[O-][Cl+3]([O-])([O-])[O-]`, for which the EC50 is above 200 µM and the IC50 came out at 5.01 µM.

For the compound `CSC1=C(C#N)C(=O)N(c2ccc(Cl)cc2)C(=O)C1C#N` (stereo not given), the EC50 was above 200 µM and the IC50 turned out to be 135 µM.

Consider `O=C1CS(=O)(=O)CN1N1CS(=O)(=O)CC1=O`, for which the EC50 was above 200 µM and the IC50 came out at 110 µM.

As for `O=S1c2ccc(Cl)cc2CC(SSC2Cc3cc(Cl)ccc3S(=O)c3ccccc32)c2ccccc21` (stereo not given), the EC50 was above 4.68 µM and the half-maximal inhibitory concentration (IC50) is above 4.68 µM.

In the case of `Cc1nn(C(=O)Cc2ccccc2)c2c1C(c1ccc3ccccc3c1O)SC(N)=N2` (stereo not given), the EC50 was above 200 µM and the half-maximal inhibitory concentration (IC50) was determined as 24 µM.

As to `Oc1c(N2CCCCC2)cc(-c2cc(N3CCCCC3)c(O)c3ccccc23)c2ccccc12`, the EC50 was above 200 µM and the IC50 is 30.2 µM.

Turning to `Cc1ccc(C)c(NC(=O)C(=O)C(C(=O)c2ccc3ccccc3c2)C2OC(=O)c3ccccc32)c1` (stereo not given), the EC50 was above 53.7 µM and the IC50 came to 23.4 µM.

With `CCOC(=O)c1nc(SC)n(C)c1C(=O)OCC`, the EC50 is above 200 µM and the IC50 is above 200 µM.

In the case of `O=C(O)c1cc2cccc(O)c2cc1O`, the EC50 is above 200 µM and the IC50 was above 200 µM.

With `COc1cccc(C(NC2=NCCC=N2)c2cc3c(cc2O)OCO3)c1O` (stereo not given), the EC50 was above 200 µM and the IC50 is 35.5 µM.

On to `O=C1NC(=O)C(C(=O)C(=O)Nc2ccc(Cl)cc2Cl)C(=O)N1`, for which the EC50 is above 275 µM and the IC50 was above 275 µM.

For `COc1ccc(OC)c(NC(=O)C(=O)Nn2c(=S)[nH]c3ccccc3c2=O)c1`, the EC50 was above 631 µM and the IC50 turned out to be 372 µM.

With `C#CCOC(=O)C(=[N+]=[N-])C(=O)CC(C)C`, the EC50 was above 200 µM and the IC50 is above 200 µM.

With `CC(=O)Oc1ccc(/C=C/C(=O)NCCOC(=O)/C=C/c2ccc(OC(C)=O)c(OC(C)=O)c2)cc1OC(C)=O`, the EC50 was above 100 µM and the half-maximal inhibitory concentration (IC50) is 15.1 µM.

Turning to `COc1cc(OC)c(C(=O)/C=C/c2ccc(OC)c(OC)c2)c(OC)c1`, the result was inactive.

Turning to `CC(=O)NC(CC(C)C)C(=O)NC(CC(=O)O)C(=O)NC(CCCCN)C(=O)NC(C)C(=O)NC(CO)C(=O)NC(Cc1ccc(O)cc1)C(=O)NC(CO)C(=O)NC(C(=O)NC(CC(N)=O)C(=O)NC(Cc1cnc[nH]1)C(=O)NC(CC(C)C)C(N)=O)C(C)O` (stereo not given) (Ac-LDKASYSTNHL-NH2; configuration not given here), the EC50 is above 47.9 µM and the IC50 was above 47.9 µM.

For the compound `CCOC(=O)C(C)c1nc2cc(F)c(F)cc2[nH]c1=O` (stereo not given), the EC50 was above 200 µM and the IC50 was above 200 µM.

Turning to `CC(=O)NC1C(=O)N(c2ccccc2)C1c1ccccc1` (stereo not given), the EC50 is above 178 µM and the IC50 was above 178 µM.

As for `O=C1NC(=O)C2C3C(C(O)(c4ccccc4)c4ccccn4)=CC(/C3=C(\c3ccccc3)c3ccccn3)C12` (stereo not given), the EC50 was above 200 µM and the IC50 worked out at 53.7 µM.

For `CC1(C)CCCC2OC2CCC(C)(C)C1=O` (stereo not given), the EC50 is above 200 µM and the IC50 is above 200 µM.

Consider `CS(=O)(=O)c1[nH]nc2[nH]c(=O)[nH]c(=O)c12`, for which the EC50 is above 200 µM and the IC50 is above 200 µM.

For `CC(C)C1CO[C@]2(C)CCC(=O)N12` (stereo not given in full), the EC50 is above 1350 µM and the 50% inhibitory concentration (IC50) was above 1350 µM.

Regarding `O=C(O)CC(O)(CC(=O)O)C(=O)O`, the result was inactive.

In the case of `COc1ccc(S(=O)(=O)N/N=C/CN2C(=O)c3ccccc3C2=O)cc1OC`, the EC50 is above 64.6 µM and the concentration for half-maximal inhibition (IC50) is above 64.6 µM.

For `CC(=O)C1=C(C)Cn2c(=O)c3ccccc3c(=O)n2C1`, the EC50 is above 95.5 µM and the 50% inhibitory concentration (IC50) was above 95.5 µM.

With `O=C1CN(Cc2ccccc2)CC(=O)N2Cc3ccccc3CN12`, the result was inactive.

For `C/C(O)=C(/C=N\C(=S)Nc1ccc(Cl)c(Cl)c1)C(=O)Nc1ccccc1C`, the EC50 was above 79.4 µM and the IC50 was 40.7 µM.

In the case of `O=c1cc(-c2ccccc2)oc2cc(OCC(O)COc3ccc4c(=O)cc(-c5ccccc5)oc4c3)ccc12`, the EC50 is above 25.7 µM and the IC50 is above 25.7 µM.

Regarding `COC1/C=C\OC2(C)Oc3c(C)c(O)c4c(O)c(c(/C=N\OC(C(=O)O)C(C)C)c(O)c4c3C2=O)NC(=O)/C(C)=C\C=C/C(C)C(O)C(C)C(O)C(C)C(OC(C)=O)C1C` (stereo not given), the EC50 was above 100 µM and the IC50 amounted to 40.7 µM.

Consider `Nc1ncnc2c1ncn2C1OC(CSCC(F)(F)F)C(O)C1O` (stereo not given), for which the EC50 was above 692 µM and the IC50 is 245 µM.

Take `CN(C)C(=O)c1nc(CNC(=O)CN)n(-c2ccc(Cl)cc2C(=O)c2ccccc2)n1`: the EC50 is above 200 µM and the half-inhibitory concentration (IC50) is above 200 µM.

For the compound `Cc1[nH]nc2c1NC(=O)OC(C)C2` (stereo not given), the EC50 was 132 µM and the IC50 came to 490 µM.

For the compound `O=C(/C=C/c1cc(O)c(O)cc1O)OCCc1ccccc1`, the EC50 is above 200 µM and the IC50 is 9.33 µM.

Turning to `COC(=O)c1c(C(=O)OC)c(-c2ccccc2)n(-c2ccccc2)c(=O)c1-c1ccccc1`, the outcome was inactive.

Consider `O=C1OCCSCCOCCSCCOC(=O)c2cccc1n2`, for which the result was inactive.

For `CCCCCC/C=C\CCCCCCCCCc1cccc(OC)c1O`, the EC50 is above 200 µM and the half-inhibitory concentration (IC50) is above 200 µM.

For the compound `C/C(=C/OS(=O)(=O)C(F)(F)F)c1ccccc1`, the EC50 was above 200 µM and the IC50 stood at 57.5 µM.

Turning to `CC1(c2cccc(C3CCC4(C=CC3=O)OCCO4)c2)OCCO1` (stereo not given), the EC50 is above 200 µM and the IC50 stood at 1.91 µM.

With `CC(C)c1cccc(C(C)C)c1NC(=O)C(=O)C(C(=O)c1ccc2ccccc2c1)C1OC(=O)c2ccccc21` (stereo not given), the EC50 is above 67.6 µM and the half-maximal inhibitory concentration (IC50) is 34.7 µM.

For the compound `CCCCCCc1cc2cc(-c3csc(-c4ccc(OC)cc4)n3)c(=O)oc2cc1O`, the EC50 is above 200 µM and the half-inhibitory concentration (IC50) was determined as 9.12 µM.

For `CCOC(=O)/C(=C\c1ccc(F)cc1)[Se]c1ccccc1`, the EC50 is above 38.9 µM and the IC50 is above 38.9 µM.

Take `COC(=O)/C(C#N)=C\NC(=S)NNC(C)=O`: the EC50 was above 200 µM and the IC50 was above 200 µM.

As to `COC(=O)C(C(=O)C(=O)Nc1ccc(OC)cc1[N+](=O)[O-])c1nc2cc(C)c(C)cc2[nH]c1=O` (stereo not given), the EC50 is above 15.5 µM and the IC50 was above 15.5 µM.

Regarding `COC1OC2COC(C)(C)OC2C(OC(C)=O)C1NC(=O)N(CCCl)N=O` (stereo not given), the EC50 was above 229 µM and the IC50 was above 229 µM.

Take `O=S1(=O)CCN(c2ccccc2CC(c2c[nH]c3ccccc23)c2c[nH]c3ccccc23)CC1`: the EC50 was above 5.75 µM and the IC50 was above 5.75 µM.

On to `Cc1n[n+](Cc2ccccc2)c2sc(N)nn12`, for which the EC50 was above 200 µM and the IC50 came to 40.7 µM.

`Cn1cnc([N+](=O)[O-])c1Sc1ncnc2nc[nH]c12`: the EC50 is above 200 µM and the IC50 is 10.7 µM.

Turning to `CN1C2CCC1C(C(=O)O)C(O)C2` (stereo not given), the EC50 was above 200 µM and the IC50 was above 200 µM.

Turning to `COc1ccc2c(c1)C(=O)CC1c3cnccc3C(=O)N21` (stereo not given), the EC50 is above 200 µM and the IC50 came out at 115 µM.

`O=C(O)c1cc(-c2ccccc2)c(-c2ccccc2)cc1C(c1ccccc1)c1ccccc1`: the EC50 was above 200 µM and the 50% inhibitory concentration (IC50) was 28.2 µM.

For the compound `O=C(O)c1cc(O)cc(O)c1N=Nc1ccc(/C=C/c2ccc(N=Nc3c(O)cc(O)cc3C(=O)O)cc2)cc1`, the 50% effective concentration (EC50) was 70.8 µM and 25.1 µM; the IC50 is 132 µM and > 100 µM.

With `CC1C2CC(CC2=O)C1(C)C` (stereo not given), the EC50 is above 1620 µM and the half-maximal inhibitory concentration (IC50) was above 1620 µM.

`CC/C(Cl)=N\OC(=O)Nc1ccc(F)c([N+](=O)[O-])c1`: the EC50 is above 200 µM and the half-maximal inhibitory concentration (IC50) amounted to 2.82 µM.

In the case of `Cc1ccc([N+](=O)[O-])cc1NC(=O)/C(CC(=O)c1sc(C(N)=S)nc1C)=N\N`, the outcome was inactive.

Regarding `CN1c2ccccc2Sc2c1n[nH]c2-c1ccccc1`, the EC50 was above 49 µM and the IC50 was found to be 20.9 µM.

For `O=C1Nc2ncnn2C1=O`, the EC50 was above 52.5 µM and the 50% inhibitory concentration (IC50) is above 52.5 µM.

Take `Cc1cc(=NCCCN(C)C)c2ccc3c(ccc4c(=NCCCN(C)C)cc(C)n(O)c43)c2n1O`: the EC50 was above 200 µM and the IC50 was 10.2 µM.

With `CN(C)NC(=S)Nc1ccccc1Br`, the EC50 is above 200 µM and the IC50 was above 200 µM.

For the compound `O=C(O)CN1CCN(CC(=O)O)CCN(CC(=O)O)CCN(CC(=O)O)CC1`, the EC50 was above 200 µM and the IC50 is above 200 µM.

With `CC1(C)C2CCC1(C)C(Cl)([N+](=O)[O-])C2` (stereo not given), the result was inactive.

For `CC1(C)CC(=O)C2(CC(CSc3ccccc3)C(CS(=O)(=O)c3ccccc3)C2)C(=O)C1` (stereo not given), the EC50 was above 200 µM and the concentration for half-maximal inhibition (IC50) is above 200 µM.

As to `C=CC1C(OC2OC(CO)C(O)C(O)C2O)OC=C(C(=O)OC)C1CC=O` (stereo not given), the EC50 was above 646 µM and the half-maximal inhibitory concentration (IC50) was above 646 µM.

For `CC(NNC(=S)N1CCCCCC1)c1cccnn1` (stereo not given), the EC50 is above 200 µM and the IC50 is 0.355 µM.

Consider `O=C(O)c1sc(=S)sc1C(=O)O`, for which the result was inactive.

As for `CCC(=O)C(CCN1CCC2(CCCc3ccccc32)CC1)(c1ccccc1)c1ccccc1`, the EC50 is above 200 µM and the IC50 worked out at 6.61 µM.
